Data on one compound can be found in patent US9399031B2, “Combined use of amides of mono- and dicarboxylic acids and silymarin in the treatment of renal diseases” (Epitech Group S.r.l., priority 2013, dated 2016).

Assay [1] deals with dismetabolic neuropathies. Conditions: animal model of diabetes by streptozotocin; cited from earlier work.
The subject of assay [2] is renal ischemia/reperfusion. Description: Experimental renal ischemia/reperfusion model. Conditions: mice, bilateral renal ischemia 30 minutes, 6 hours post-reperfusion; compared to the carrier alone; FIGS. 1 and 2. The format is in vivo. The procedure: After being anesthesized with sodium pentobarbital (50 mg/kg i.p.), mice were placed on a heated mat to keep their body temperature at 37° C. during surgery. After a laparatomy, mice were subjected to bilateral renal ischemia during 30 minutes, during which renal arteries and veins were occluded by microaneurysm clamps. The ischemia time selected was based on the time capable of maximizing the reproducibility of the renal function unbalance, while minimizing animal death. After removing renal clamps, kidneys were observed during additional 5 minutes to confirm complete reperfusion, and subsequently 1 ml saline was injected into the abdomen and incision was sutured. […] All plasma samples were analyzed for assessing the biochemical parameters within 24 hours post-withdrawal. Plasma concentrations of urea and creatinine were measured as indicators of the impaired glomerular function. […] Absorbance change rate was spectrometrically measured at 650 nm. […] Determination of Malondialdehyde Levels Malondialdehyde (MDA) levels in kidneys were determined as an indicator of lipid peroxidation. […] Supernatant absorbance was spectrometrically measured at 532 nm. MDA levels were expressed as μM/100 mg wet tissue. […] Total scoring for each kidney was calculated by the sum of all the 100 scores, with a maximum score of 300. […]

On to `CCCCCCCCCCCCCCCC(=O)NCCO` [PEA, Palmitoylethanolamide], for which, in assay [1], the allodynia result is “suppresses allodynia”, the blood insulin levels entry is given as “increase in blood insulin levels” and the body weight result is listed as “partial body weight recovery”. In addition, the “functional and tissue parameters for kidneys (plasma AST, γGT, creatinine, urea; MDA levels, MPO renal activity, histologic assessment)” value in assay [2] is listed as “neither Silymarin alone nor PEA alone, when used at the same doses as in the combination, showed an improvement effect”.
